Test system: transcriptional activity of NRF2 (ARE activity)
Test: miRNA library screening using ARE-luciferase reporter system
Assay type: cell-based, human
Details: HeLa cells, 20 nmol/L miRNA, 48 hours after transfection, luciferase activity per living cell
Procedure: The luciferase reporter plasmid was prepared by inserting a human NQO-1 promoter region 5′-[…]-3′ (SEQ ID NO: 19) including an antioxidant response element (ARE) into an Mlu1/Xho1 site in pGL3 vector (Promega). Specifically, a pair of synthetic oligonucleotides complementary with each other shown in Table 2 (upper; SEQ ID NO: 20, lower; SEQ ID NO: 21) were annealed, to thereby form a double-stranded DNA, and a double-stranded DNA having cohesive ends complementary to the Mlu1/Xho1 site was prepared by use of Mlu1 and Xho1. The thus-produced double-stranded DNA fragment was inserted into the Mlu1/Xho1 site, to thereby yield a recombinant pGL3 (reporter plasmid) of interest.
Firstly, the reporter plasmid was transiently transfected into HeLa cells (1×10^7 cells/dish) in a 10 cm dish. 24 hours after transfection, the cells (1×10^4 cells/well) were seeded on a 96-well plate, and the next day, 20 nmol/L of each of the 470 double-stranded RNA fragments, derived from Pre-miRNA precursor library-Human V3 (Ambion) or control miRNA was transfected. After two days, firefly luciferase activity was measured by means of a microplate reader (ARVOmx; Perkinelmer) using Bright-Glo Luciferase Assay System (Promega). At the same time, living cells were detected through CV staining assay. ARE activity was calculated from the luciferase activity per living cell.
For the screening of 470 double-stranded RNAs, HeLa cells were sequentially transfected with each miRNA together with the reporter plasmid, and then the ARE activity in each transfected cell was calculated as the luciferase activity per living cell, as measured by the crystal violet (CV) staining assay. Briefly, the ARE-luciferase reporter plasmid and each miRNA from the library were sequentially transfected into HeLa cells, and after 48 hours, luciferase activity or the number of living cells was measured using the Bright-GIo Luciferase Assay System or crystal violet (CV) staining assay, respectively. The ARE activity for each miRNA-transfected cell was calculated as the luciferase activity per living cell.
The ARE activity relative to that in control-miRNA-transfected cells is indicated on the vertical axis. Eight miRNAs with a relative ratio of 0.5 or less were identified as candidates by this screening system. Also, eight miRNAs with a relative ratio of 1.5 or more were similarly identified as candidates by this screening system.

Q: “hsa-miR-337: low-value miRNA from Pre-miRNA precursor library; mature sequence GAACGGCUUCAUACAGGAGUU, SEQ ID NO: 6 (listed as RNA, chemistry not given here; listed as Homo sapiens)” was tested. Which “ARE activity relative to that in control-miRNA-transfected cells (relative ratio)” value (from here on “ARE activity relative to that … (relative ratio)”) did it give?
A: large decrease

Q: For “hsa-miR-639: low-value miRNA from Pre-miRNA precursor library; mature sequence AUCGCUGCGGUUGCGAGCGCUGU, SEQ ID NO: 5 (listed as RNA, chemistry not given here; listed as Homo sapiens)”, which “ARE activity relative to that … (relative ratio)” value is on record?
A: large decrease

Q: For “hsa-miR-153: low-value miRNA from Pre-miRNA precursor library; mature sequence UUGCAUAGUCACAAAAGUGAUC, SEQ ID NO: 7 (listed as RNA, chemistry not given here; listed as Homo sapiens)”, which “ARE activity relative to that … (relative ratio)” value is on record?
A: large decrease

Q: “hsa-miR-556: low-value miRNA from Pre-miRNA precursor library; mature sequence GAUGAGCUCAUUGUAAUAUGAG, SEQ ID NO: 8 (listed as RNA, chemistry not given here; listed as Homo sapiens)” was tested. Which “ARE activity relative to that … (relative ratio)” value did it give?
A: large decrease
